Reference: US20220340598A1, “PYRAZOLOPYRIDINONE COMPOUNDS” (Janssen Pharmaceutica NV, priority 2017, published 2022)
Structures can show the parent of a compound that is named as a salt.

Legend:
[1] = target: T1, NIH/3T3 cells overexpressing FGFR3 V555M-TACC3 fusion protein (Homo sapiens, UniProt P22607, V555M, cells depend on it); assay: NIH/3T3 FGFR3 V555M-TACC3 cell proliferation assay; assay type: cell-based; conditions: 72-hr incubation, CellTiter Glo; read-out: NIH/3T3 FGFR3 V555M-TACC3 CTG (IC50)
T1 construct: fused on or other part: Q9Y6A5 (Transforming acidic coiled-coil-containing protein 3)
T1 sequence (P22607 whole entry V555M, the tested form may be a part): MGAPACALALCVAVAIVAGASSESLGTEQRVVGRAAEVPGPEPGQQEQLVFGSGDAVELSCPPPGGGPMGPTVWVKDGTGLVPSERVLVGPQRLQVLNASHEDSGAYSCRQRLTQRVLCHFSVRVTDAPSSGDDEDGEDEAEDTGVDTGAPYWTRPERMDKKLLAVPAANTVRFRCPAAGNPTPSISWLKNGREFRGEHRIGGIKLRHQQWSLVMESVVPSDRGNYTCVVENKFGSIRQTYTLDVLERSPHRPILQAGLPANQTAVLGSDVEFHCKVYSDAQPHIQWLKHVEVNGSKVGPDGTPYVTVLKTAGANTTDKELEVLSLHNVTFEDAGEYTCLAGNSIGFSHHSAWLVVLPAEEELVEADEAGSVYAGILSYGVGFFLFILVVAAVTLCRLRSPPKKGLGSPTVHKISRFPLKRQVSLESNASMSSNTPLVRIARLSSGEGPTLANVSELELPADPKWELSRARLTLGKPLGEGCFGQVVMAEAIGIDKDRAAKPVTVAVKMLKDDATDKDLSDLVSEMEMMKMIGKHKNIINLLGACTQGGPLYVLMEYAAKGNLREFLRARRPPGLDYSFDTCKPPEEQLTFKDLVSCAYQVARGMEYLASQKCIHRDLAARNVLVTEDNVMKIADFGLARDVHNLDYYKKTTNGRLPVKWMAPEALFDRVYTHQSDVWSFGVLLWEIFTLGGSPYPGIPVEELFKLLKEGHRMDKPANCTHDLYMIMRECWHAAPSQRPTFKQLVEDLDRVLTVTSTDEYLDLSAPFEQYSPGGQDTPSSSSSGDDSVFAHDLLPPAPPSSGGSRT
Experimental: NIH/3T3 FGFR3 V555M-TACC3 Cell Proliferation Assay
(§1) In day 1, 90 μL of cell suspension (NIH/3T3 cells overexpressing FGFR3 V555M-TACC3 fusion protein) (total 30,000 cells per well in growth medium (DMEM containing 1% Glutamax, 10% FBS and 1% Pen/Strep)) was seeded in a 96-well plate and then incubated overnight at 37° C. and 5% CO2. In day 2, 10 μL of growth medium containing 10-fold stock solution of testing compound was added into cell cultures (9 dose points with 4× serial dilution, starting with 10 μM, 0.1% DMSO final). After 72-hr incubation at 37° C. and 5% CO2, in day 5 a volume of 50 μL CellTiter Glo (CTG) reagent was added into cell-containing 96-well plate and the plate was incubated at room temperature for 10 minutes before RLUs (relative light unit) were measured on a microplate reader with luminescence detection module. The RLU value was normalized to survival % and concentration-response curve was plotted using Prism to calculate IC50 (M), pIC50 (−log IC50) and HillSlope value.

[2] = target: T2, NIH/3T3 cells overexpressing FGFR3 WT-TACC3 fusion protein (Homo sapiens, UniProt P22607); assay: NIH/3T3 FGFR3 WT-TACC3 cell proliferation assay; assay type: cell-based; conditions: 72-hr incubation, CellTiter Glo; read-out: NIH/3T3 FGFR3 WT-TACC3 CTG (IC50)
T2 construct: fused on or other part: Q9Y6A5 (Transforming acidic coiled-coil-containing protein 3)
T2 sequence (P22607 whole entry, change not shown, the tested form may be a part): as the sequence (P22607 whole entry V555M, the tested form may be a part) above, with M555V counted along it
Experimental: NIH/3T3 FGFR3 WT-TACC3 Cell Proliferation Assay
as §1, with “WT-TACC3” for “V555M-TACC3”

GI50 [1] [nM]	GI50 [2] [nM]	Compound
51.5	71.9	COc1cc2[nH]c(-c3c(NC(c4ncccn4)C(C)C)c4nn(C)cc4[nH]c3=O)nc2cn1 (single isomer, unassigned) [Compound 18, (S*)-6-(6-methoxy-1H-imidazo[4,5-c]pyridin-2-yl)-2-methyl-7-((2-methyl-1-(pyrimidin-2-yl)propyl)amino)-2H-pyrazolo[4,3-b]pyridin-5(4H)-one]
69.6	43.2	CCn1cc2[nH]c(=O)c(-c3nc4c(OC)cccc4[nH]3)c(N[C@@H](C)c3ncccn3)c2n1 [Compound 32, (S)-2-ethyl-6-(4-methoxy-1H-benzo[d]imidazol-2-yl)-7-((1-(pyrimidin-2-yl)ethyl)amino)-2H-pyrazolo[4,3-b]pyridin-5(4H)-one]
29.6	–	(S)-6-(5,6-Dimethoxy-1H-benzo[d]imidazol-2-yl)-2-ethyl-7-((1-(pyrimidin-2-yl)ethyl)-amino)-2H-pyrazolo[4,3-b]pyridin-5(4H)-one [Compound 6]
31.8	21.9	CCn1cc2[nH]c(=O)c(-c3nc4ccc(OC)cc4[nH]3)c(N[C@@H](C)c3ncccn3)c2n1 [Compound 4, (S)-2-ethyl-6-(6-methoxy-1H-benzo[d]imidazol-2-yl)-7-((1-(pyrimidin-2-yl)ethyl)amino)-2H-pyrazolo[4,3-b]pyridin-5(4H)-one]
23.9	27.6	CCC(Nc1c(-c2nc3ccc(OC)cc3[nH]2)c(=O)[nH]c2cn(C)nc12)c1ncccn1 (single isomer, unassigned) [Compound 17, (R*)-6(6-Methoxy-1H-benzo[d]imidazol-2-yl)-2-methyl-7-((1-(pyrimidin-2-yl)propyl)amino)-2H-pyrazolo[4,3-b]pyridin-5(4H)-one]
4.15	3.19	CCOc1cc2nc(-c3c(N[C@@H](C)c4ncccn4)c4nn(C)cc4[nH]c3=O)[nH]c2cc1OCC [Compound 53, (S)-6-(5,6-diethoxy-1H-benzo[d]imidazol-2-yl)-2-methyl-7-((1-(pyrimidin-2-yl)ethyl)amino)-2,4-dihydro-5H-pyrazolo[4,3-b]pyridin-5-one]
31.1	–	CCn1cc2[nH]c(=O)c(-c3nc4cc(OC)c(OC)cc4[nH]3)c(N[C@@H](C)c3ccccn3)c2n1 [Compound 51, (S)-6-(5,6-dimethoxy-1H-benzo[d]imidazol-2-yl)-2-ethyl-7-((1-(pyridin-2-yl)ethyl)amino)-2,4-dihydro-5H-pyrazolo[4,3-b]pyridin-5-one]
109	106	COCC(Nc1c(-c2nc3ccc(OC)cc3[nH]2)c(=O)[nH]c2cn(C)nc12)c1ncccn1 (single isomer, unassigned) [Compound 12, (S*)-7-((2-methoxy-1-(pyrimidin-2-yl)ethyl)amino)-6-(6-methoxy-1H-benzo[d]imidazol-2-yl)-2-methyl-2H-pyrazolo[4,3-b]pyridin-5(4H)-one]
37.3	58	CC(C)[C@H](Nc1c(-c2nc3ncc(N(C)C)cc3[nH]2)c(=O)[nH]c2cn(C)nc12)c1ncccn1 (stereo in doubt) [Compound 23, (S*)-6-(6-(dimethylamino)-1H-imidazo[4,5-b]pyridin-2-yl)-2-methyl-7-((2-methyl-1-(pyrimidin-2-yl)propyl)amino)-2H-pyrazolo[4,3-b]pyridin-5(4H)-one 0.14 formate]
78.5	81	COc1cnc2nc(-c3c(NC(c4ncccn4)C(C)C)c4nn(C)cc4[nH]c3=O)[nH]c2c1 (single isomer, unassigned) [Compound 40, (S*)-6-(6-methoxy-1H-imidazo[4,5-b]pyridin-2-yl)-2-methyl-7-((2-methyl-1-(pyrimidin-2-yl)propyl)amino)-2,4-dihydro-5H-pyrazolo[4,3-b]pyridin-5-one]
20.8	16	COc1cc(OC)c2nc(-c3c(N[C@@H](C)c4ncccn4)c4nn(C)cc4[nH]c3=O)[nH]c2c1 [Compound 29, (S)-6-(4,6-Dimethoxy-1H-benzo[d]imidazol-2-yl)-2-methyl-7-((1-(pyrimidin-2-yl)ethyl)amino)-2H-pyrazolo[4,3-b]pyridin-5(4H)-one]
24.6	24.4	CC[C@H](Nc1c(-c2nc3cnc(N(C)C)cc3[nH]2)c(=O)[nH]c2cn(C)nc12)c1ncccn1 [Compound 22, (S)-6-(6-(dimethylamino)-1H-imidazo[4,5-c]pyridin-2-yl)-2-methyl-7-((1-(pyrimidin-2-yl)propyl)amino)-2H-pyrazolo[4,3-b]pyridin-5(4H)-one]
64.5	–	CCn1cc2[nH]c(=O)c(-c3nc4c(OC)cc(OC)cc4[nH]3)c(N[C@@H](C)c3ncccn3)c2n1 [Compound 31, (S)-6-(4,6-dimethoxy-1H-benzo[d]imidazol-2-yl)-2-ethyl-7-((1-(pyrimidin-2-yl)ethyl)amino)-2H-pyrazolo[4,3-b]pyridin-5(4H)-one]
11.8	17400	COc1cc2[nH]c(-c3c(N[C@@H](C)c4ncccn4)c4nn(C)cc4[nH]c3=O)nc2c(F)c1OC [Compound 55, (S)-6-(4-fluoro-5,6-dimethoxy-1H-benzo[d]imidazol-2-yl)-2-methyl-7-((1-(pyrimidin-2-yl)ethyl)amino)-2H-pyrazolo[4,3-b]pyridin-5(4H)-one]
21.6	11.5	CCn1cc2[nH]c(=O)c(-c3nc4ccc(OCCOC)cc4[nH]3)c(N[C@@H](C)c3ncccn3)c2n1 [Compound 54, (S)-2-ethyl-6-(6-(2-methoxyethoxy)-1H-benzo[d]imidazol-2-yl)-7-((1-(pyrimidin-2-yl)ethyl)amino)-2H-pyrazolo[4,3-b]pyridin-5(4H)-one]
16.1	18	COc1cc(F)c2nc(-c3c(N[C@@H](C)c4ncccn4)c4nn(C)cc4[nH]c3=O)[nH]c2c1 [Compound 2, (S)-6-(4-fluoro-6-methoxy-1H-benzo[d]imidazol-2-yl)-2-methyl-7-((1-(pyrimidin-2-yl)-ethyl)amino)-2H-pyrazolo[4,3-b]pyridin-5(4H)-one]
6.37	6.03	CCOc1cc2[nH]c(-c3c(N[C@@H](C)c4ncccn4)c4nn(C)cc4[nH]c3=O)nc2cc1OC [Compound 7, (S)-6-(6-ethoxy-5-methoxy-1H-benzo[d]imidazol-2-yl)-2-methyl-7-((1-(pyrimidin-2-yl)ethyl)amino)-2,4-dihydro-5H-pyrazolo[4,3-b]pyridin-5-one]
18.8	16.1	CCOc1cc2nc(-c3c(N[C@@H](C)c4ncccn4)c4nn(CC)cc4[nH]c3=O)[nH]c2cc1OCC [Compound 52, (S)-6-(5,6-diethoxy-1H-benzo[d]imidazol-2-yl)-2-ethyl-7-((1-(pyrimidin-2-yl)ethyl)amino)-2H-pyrazolo[4,3-b]pyridin-5(4H)-one]
29.6	16.8	CCn1cc2[nH]c(=O)c(-c3nc4cc(OC)c(OC)cc4[nH]3)c(N[C@@H](C)c3ncccn3)c2n1 [Compound 37, (S)-6-(5,6-dimethoxy-1H-benzo[d]imidazol-2-yl)-2-ethyl-7-((1-(pyrimidin-2-yl)ethyl)amino)-2H-pyrazolo[4,3-b]pyridin-5(4H)-one]
55.6	46.5	CCn1cc2[nH]c(=O)c(-c3nc4c(F)c(OC)c(OC)cc4[nH]3)c(N[C@@H](C)c3ncccn3)c2n1 [Compound 41, (S)-2-ethyl-6-(4-fluoro-5,6-dimethoxy-1H-benzo[d]imidazol-2-yl)-7-((1-(pyrimidin-2-yl)ethyl)amino)-2H-pyrazolo[4,3-b]pyridin-5(4H)-one]
18.2	–	CCC(Nc1c(-c2nc3cc(OC)c(OC)cc3[nH]2)c(=O)[nH]c2cn(C)nc12)c1ncccn1 (single isomer, unassigned) [Compound 42, (S*)-6-(5,6-dimethoxy-1H-benzo[d]imidazol-2-yl)-2-methyl-7-((1-(pyrimidin-2-yl)propyl)amino)-2H-pyrazolo[4,3-b]pyridin-5(4H)-one]
37.3	–	CCn1cc2[nH]c(=O)c(-c3nc4cc(OC)c(OCCOC)cc4[nH]3)c(N[C@@H](C)c3ncccn3)c2n1 [Compound 38, (S)-2-ethyl-6-(5-methoxy-6-(2-methoxyethoxy)-1H-benzo[d]imidazol-2-yl)-7-((1-(pyrimidin-2-yl)ethyl)amino)-2H-pyrazolo[4,3-b]pyridin-5(4H)-one]
